Calls of active or inactive are those of the source. The rule behind the calls is not given here.
How the values were obtained:
PC-12 [1] = assay: Potentiation of NGF-induced neuronal differentiation in rat PC12 cells assessed as increase in number of neurites after 8 days by phase contrast micoscopy; assay type: functional, cell-based
[2] = biological target: T1, Mitogen-activated protein kinase 1 and 3 (ERK2 and ERK1) (Rattus norvegicus) (UniProt P63086+P21708); assay: Increase in NGF-induced ERK1/2 phosphorylation in rat PC12 cells at 5 to 25 uM after 2 hrs by immunoblotting method; assay type: cell-based
[3] = biological target: High affinity nerve growth factor receptor (Rattus norvegicus) (UniProt P35739); assay: Potentiation of NGF-induced TrkA phosphorylation in rat PC12 cells at 5 to 25 uM after 60 mins by Western blot method; assay type: cell-based
[4] = biological target: RAC-alpha serine/threonine-protein kinase (Rattus norvegicus) (UniProt P47196); assay: Increase in AKT phosphorylation in rat PC12 cells at 5 to 25 uM after 2 hrs by immunoblotting method; assay type: cell-based
[5] = biological target: RAC-alpha serine/threonine-protein kinase (Rattus norvegicus) (UniProt P47196); assay: Increase in NGF-induced AKT phosphorylation in rat PC12 cells at 5 to 25 uM after 2 hrs by immunoblotting method; assay type: cell-based
[6] = biological target: High affinity nerve growth factor receptor (Rattus norvegicus) (UniProt P35739); assay: Activation of TrkA in rat PC12 cells assessed as increase in phospho-TrkA levels at 5 to 25 uM after 60 mins by Western blot method; assay type: cell-based
[7] = biological target: T1, Mitogen-activated protein kinase 1 and 3 (ERK2 and ERK1) (Rattus norvegicus); assay: Increase in ERK1/2 phosphorylation in rat PC12 cells after 2 hrs by immunoblotting method; assay type: cell-based
PC-12 [8] = assay: Neuroprotective activity against serum deprivation-induced cell death in rat PC12 cells assessed as cell survival at 25 uM after 48 hrs by MTT assay relative to control; assay type: functional; settings: PC-12, 48 h, read-out: Survival
PC-12 [9] = assay: Neuroprotective activity against serum deprivation-induced cell death in rat PC12 cells assessed as increase in cell survival at 25 uM after 48 hrs in presence of TrkA inhibitor K252a by MTT assay; assay type: functional, cell-based
PC-12 [10] = assay: Potentiation of NGF-induced neuronal differentiation in rat PC12 cells assessed as increase in number of neurites at 25 uM after 8 days by phase contrast micoscopy; assay type: functional, cell-based
PC-12 [11] = assay: Potentiation of NGF-induced neuronal differentiation in rat PC12 cells assessed as increase in number of neurites longer than 100 umeter at 5 uM after 8 days by phase contrast micoscopy; assay type: functional, cell-based
PC-12 [12] = assay: Potentiation of NGF-induced neuronal differentiation in rat PC12 cells assessed as increase in number of neurites at 1 uM after 8 days by phase contrast micoscopy; assay type: functional, cell-based
PC-12 [13] = assay: Potentiation of NGF-induced neuronal differentiation in rat PC12 cells assessed as increase in number of neurites at 5 uM after 8 days by phase contrast micoscopy; assay type: functional, cell-based
PC-12 [14] = assay: Induction of neurite outgrowth in rat PC12 cells assessed as increase in total number of neurites at 5 to 25 uM after 8 days by phase contrast micoscopy; assay type: functional, cell-based
PC-12 [15] = assay: Potentiation of NGF-induced neuronal differentiation in rat PC12 cells assessed as increase in number of neurites longer than 100 umeter at 25 uM after 8 days by phase contrast micoscopy; assay type: functional, cell-based

T1 sequence (P21708 whole entry, looked up): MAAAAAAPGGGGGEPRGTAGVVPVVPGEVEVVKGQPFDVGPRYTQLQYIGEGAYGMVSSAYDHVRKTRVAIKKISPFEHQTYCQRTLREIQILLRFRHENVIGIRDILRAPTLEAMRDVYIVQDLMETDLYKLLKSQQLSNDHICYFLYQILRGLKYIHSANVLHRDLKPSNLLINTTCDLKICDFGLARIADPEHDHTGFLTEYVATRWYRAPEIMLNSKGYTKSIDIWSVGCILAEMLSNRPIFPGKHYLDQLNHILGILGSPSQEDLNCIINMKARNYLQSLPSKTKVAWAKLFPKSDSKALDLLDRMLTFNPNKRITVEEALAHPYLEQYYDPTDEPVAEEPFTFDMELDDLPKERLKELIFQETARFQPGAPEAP
T1 sequence (P63086 whole entry, looked up): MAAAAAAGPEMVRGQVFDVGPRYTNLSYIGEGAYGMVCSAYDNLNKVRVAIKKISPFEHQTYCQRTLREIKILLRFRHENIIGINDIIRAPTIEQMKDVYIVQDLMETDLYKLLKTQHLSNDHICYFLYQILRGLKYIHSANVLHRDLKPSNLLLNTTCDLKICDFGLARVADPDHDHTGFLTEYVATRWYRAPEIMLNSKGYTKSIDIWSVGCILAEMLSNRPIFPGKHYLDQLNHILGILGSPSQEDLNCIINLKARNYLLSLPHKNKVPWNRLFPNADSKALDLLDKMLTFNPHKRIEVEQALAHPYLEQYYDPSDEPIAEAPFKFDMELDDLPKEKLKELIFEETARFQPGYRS
Sequence of High affinity nerve growth factor receptor (Rattus norvegicus) (P35739 whole entry): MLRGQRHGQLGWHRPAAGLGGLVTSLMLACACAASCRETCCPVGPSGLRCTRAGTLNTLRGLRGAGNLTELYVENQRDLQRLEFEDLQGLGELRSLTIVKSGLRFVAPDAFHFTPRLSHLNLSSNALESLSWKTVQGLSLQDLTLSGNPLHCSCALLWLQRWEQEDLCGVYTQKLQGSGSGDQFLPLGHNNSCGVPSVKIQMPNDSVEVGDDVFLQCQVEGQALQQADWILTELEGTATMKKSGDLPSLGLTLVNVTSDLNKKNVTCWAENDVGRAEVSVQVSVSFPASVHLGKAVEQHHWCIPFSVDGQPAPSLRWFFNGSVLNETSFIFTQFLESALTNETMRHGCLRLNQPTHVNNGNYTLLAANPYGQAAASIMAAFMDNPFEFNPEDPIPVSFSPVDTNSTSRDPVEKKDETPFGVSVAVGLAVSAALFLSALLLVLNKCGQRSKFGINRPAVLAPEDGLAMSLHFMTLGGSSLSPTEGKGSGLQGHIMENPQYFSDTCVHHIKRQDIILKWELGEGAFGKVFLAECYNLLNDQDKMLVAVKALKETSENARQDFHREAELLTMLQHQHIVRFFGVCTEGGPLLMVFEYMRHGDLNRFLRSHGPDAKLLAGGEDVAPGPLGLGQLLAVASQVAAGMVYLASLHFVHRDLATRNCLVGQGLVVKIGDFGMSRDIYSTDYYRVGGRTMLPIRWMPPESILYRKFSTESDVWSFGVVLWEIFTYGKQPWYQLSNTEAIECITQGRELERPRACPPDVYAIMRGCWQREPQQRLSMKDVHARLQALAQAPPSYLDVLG
Sequence of RAC-alpha serine/threonine-protein kinase (Rattus norvegicus) (P47196 whole entry): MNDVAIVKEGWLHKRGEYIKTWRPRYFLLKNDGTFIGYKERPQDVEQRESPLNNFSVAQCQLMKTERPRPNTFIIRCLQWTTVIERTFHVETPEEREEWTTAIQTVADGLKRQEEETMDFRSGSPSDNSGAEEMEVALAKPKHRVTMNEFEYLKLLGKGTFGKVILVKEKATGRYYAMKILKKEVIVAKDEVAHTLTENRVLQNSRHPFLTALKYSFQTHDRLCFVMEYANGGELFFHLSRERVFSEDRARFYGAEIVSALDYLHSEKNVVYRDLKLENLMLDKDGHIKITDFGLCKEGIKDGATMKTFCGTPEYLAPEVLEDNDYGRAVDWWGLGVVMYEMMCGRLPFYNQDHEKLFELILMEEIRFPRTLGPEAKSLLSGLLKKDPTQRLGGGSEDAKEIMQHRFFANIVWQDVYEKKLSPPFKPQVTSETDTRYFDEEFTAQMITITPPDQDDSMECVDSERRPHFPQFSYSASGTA

Compound	Activity (PC-12 [1])	Activity [2]	Activity [3]	Activity [4]	Activity [5]	Activity [6]	Activity [7]	viability at 25 µM (PC-12 [8])	Activity (PC-12 [9])	Activity (PC-12 [10])	Activity (PC-12 [11])	Activity (PC-12 [12])	Activity (PC-12 [13])	Activity (PC-12 [14])	Activity (PC-12 [15])
CCCCCCCCCCCCNC(=O)/C=C/c1ccc(O)c(O)c1	inactive	Active	inactive	Active	inactive	inactive	Dose-dependent effect	230%	inactive						
CCCCCCNC(=O)/C=C/c1ccc(O)c(O)c1 [CAFFEOYLHEXYLAMIDE]								183%	inactive	Active	Active	inactive	Active	inactive	Active
CCCCCCCCNC(=O)/C=C/c1ccc(O)c(O)c1								158%	inactive	Active	Active	inactive	Active	inactive	Active
CCCCCCCCCCNC(=O)/C=C/c1ccc(O)c(O)c1	inactive							193%	inactive						
CCCCNC(=O)/C=C/c1ccc(O)c(O)c1		Active	inactive	inactive	inactive	inactive	Dose-dependent effect	202%	inactive	Active	Active	inactive	Active	inactive	Active
CCCNC(=O)/C=C/c1ccc(O)c(O)c1								158%	inactive	Active		inactive		inactive	Active
